Laboratory results: patent US12325744B2, “Methods for reducing post-operative cognitive dysfunction (POCD)” (The Kennedy Trust for Rheumatology Research, priority 2010, dated 2025)
“Also recorded” adds a separate entry of the source.

Columns and labels:
[1] = test system: IL-1β; assay: Plasma IL-1β by ELISA after LPS injection; assay type: in vivo, mice; conditions: LPS 1 mg/kg i.p., IL-1Ra 100 mg/kg s.c. immediately before LPS
Experimental: Treatment. LPS derived from Escherichia Coli endotoxin ([…], InvivoGen, USA, 1 mg/kg) was dissolved in normal saline and injected intraperitoneally. IL-1Ra (Amgen, Anakinra 100 mg/kg, Nederlands) was given subcutaneously immediately before LPS administration. Dose response curve from LPS or IL-1Ra was obtained from our pilot studies to provoke or to suppress moderate degree of microglia activation respectively. Control animals were injected with equivalent volumes (0.1 ml) of saline. Mice from each treatment group were randomly assigned for assessment of either cytokine response or cognitive behavior, in order to obviate possible confounding effects of behavioral testing on inflammatory markers.
Plasma cytokine measurement. Blood was sampled transcardially after thoracotomy under terminal anesthesia 30 minutes, 2, 6, 12 hours and 1, 3, 7 days after experiments in the different cohorts and centrifuged at 3,600 rpm for 7 minutes at 4° C. Blood samples taken from animals without any interventions severed as controls. Plasma samples were stored at −20° C. for further analysis. Plasma cytokine and HMGB-1 were measured using commercially available ELISA kits from Biosource, CA and Shino-test Corporation, Japan, respectively. The sensitivities of the assays were <3 pg/ml for TNFα, <7 pg/ml for IL-1β, <3 pg/ml for IL-6 and 1 ng/ml for HMGB-1.

[2] = test system: IL-1β; assay: Plasma (systemic) IL-1β by ELISA after tibial surgery; assay type: in vivo; conditions: wild type mice, minocycline 40 mg/kg i.p., enrofloxacin 10 mg/kg or IL-1Ra 100 mg/kg given prior to surgery, vs surgery alone
From the text: Mice were subjected to an open tibial fracture of the left hind paw with intramedullary fixation in aseptic conditions under general anaesthesia with isoflurane and analgesia with buprenorphineas previously described^18. Other groups of animals were not subjected to any intervention (naïve), or received anesthetic/analgesia alone, or underwent surgery with concurrent administration of minocycline, enrofloxacin, or IL-1 receptor antagonist (IL-1Ra). (For further details please refer to supplemental methods).
IL-6, TNF-α and IL-1β were measured by ELISA^19 (Biosource, CA; Bender Medsystem, CA, respectively). Hippocampal IL-1β was measured by ELISA (Bender Medsystem, CA), as previously described^20. To confirm reliability of dilution linearity and spike recovery cytokine measurement were also performed in mice in which inflammation was induced with i.p. LPS (0111:B4, Invivogen, CA). (For further details please refer to supplemental methods).
Mice were randomly assigned to the following groups: surgery under general anesthesia (S), surgery under general anesthesia plus minocycline (M), surgery under general anesthesia plus enrofloxacin (E), surgery under general anesthesia plus interleukin-1 receptor antagonist (IL-1Ra) (I), surgery in IL1R^−/− mice under general anesthesia (K), general anesthesia without surgery (A), and no intervention (naïve wild-type, or naïve IL1R^−/−). Under aseptic conditions, groups of mice were subjected to an open tibial fracture of the left hind paw with an intramedullary fixation as previously described^2. Briefly, isoflurane (Abbot Laboratories Ltd., Queensborough, Kent, UK) 2.1% in air (1.5 MAC)^3 and buprenorphine (Reckitt Benckiser Healthcare Ltd, Hull, UK) 0.1 mg/kg subcutaneously (sc), were given to provide both surgical anesthesia and extended post-operative analgesia for the surgical intervention and post-surgical recovery. After shaving the overlying skin and disinfecting with chlorhexidine gluconate 0.5% and isopropyl alcohol 70% (PDI, Orangeburg, NY, USA) a fracture of the tibial shaft was created under direct vision. […]

IL-1Ra: IL-1 receptor antagonist (Amgen, Anakinra)
Plasma IL-1β at 6 hours after LPS with IL-1Ra ([1]; 6 hours): 32.7 ± 5.45 pg/mL | Plasma IL-1β at 24 hours after LPS with IL-1Ra ([1]; 24 hours): 6.2 ± 1.03 pg/mL | Plasma IL-1β after surgery, effect of treatment [2]: did not increase circulating IL-1β; also recorded: Surgery did not induce a significant increase of IL-1β at 24 h
